Source: patent US9896418B2, “Aryl ethers and uses thereof” (Peloton Therapeutics, Inc., priority 2013, dated 2018)

System: HIF-2α HIS TAG-PASB Domain
Test: HIF-2α Scintillation Proximity Assay (SPA)
Assay type: binding
Description: The percent inhibition was determined and IC50 values were calculated using the Dotmatics system based on the following equation: % inhibition=[(high control−sample)/(high control−low control)]×100.

Row | Molecule | IC50 [nM]
1 | O=S(=O)(c1ccc(Oc2cc(F)cc(CO)c2)c(Br)c1)C(F)(F)F [Compound 177, (3-(2-Bromo-4-((trifluoromethyl)sulfonyl)phenoxy)-5-fluorophenyl)methanol] | 18000
2 | N#Cc1cccc(Oc2ccc(S(=O)(=O)C(F)(F)F)cc2Br)c1 [Compound 117, 3-(2-Bromo-4-((trifluoromethyl)sulfonyl)phenoxy)benzonitrile] | 210
3 | Cc1c(S(C)(=O)=O)ccc(Oc2cc(F)cc(F)c2)c1C#N [Compound 52, 6-(3,5-Difluorophenoxy)-2-methyl-3-(methylsulfonyl)benzonitrile] | 46
4 | N#Cc1cc(S(=O)(=O)C(F)F)ccc1Oc1cc(F)cc(Cl)c1 [Compound 133, 2-(3-Chloro-5-fluorophenoxy)-5-((difluoromethyl)sulfonyl)benzonitrile] | 500
5 | N#Cc1cc(F)cc(Oc2ccc(S(N)(=O)=O)c3c2C[C@@H](F)[C@H]3O)c1 [Compound 334, (2R,3S)-7-(3-cyano-5-fluoro-phenoxy)-2-fluoro-3-hydroxy-indane-4-sulfonamide] | 73
6 | [[(1R,3R)-7-(3-cyano-5-fluoro-phenoxy)-1,2,2-trifluoro-3-hydroxy-indan-4-yl]-methyl-oxo-λ^6-sulfanylidene]cyanamide [Compound 320] | 1570
7 | CCOC(=O)/C=C/c1c(S(=O)(=O)C(F)(F)F)ccc(Oc2cc(F)cc(C#N)c2)c1C [Compound 148, Ethyl (E)-3-(3-(3-cyano-5-fluorophenoxy)-2-methyl-6-((trifluoromethyl)sulfonyl)phenyl)acrylate] | 220
8 | O=S(=O)(c1ccc(Oc2cc(F)cc(Cl)c2)c(Cl)c1CNCCF)C(F)(F)F [Compound 114, N-(2-Chloro-3-(3-chloro-5-fluorophenoxy)-6-((trifluoromethyl)sulfonyl)benzyl)-2-fluoroethan-1-amine] | 1100
9 | CS(=O)(=O)c1ccc(Oc2cncc(C#N)c2)c2c1[C@H](O)[C@H](F)[C@@H]2F [Compound 333, 5-(((1S,2S,3R)-2,3-difluoro-1-hydroxy-7-(methylsulfonyl)-2,3-dihydro-1H-inden-4-yl)oxy)nicotinonitrile] | 74
10 | CC1(O)c2c(S(=O)(=O)C(F)F)ccc(Oc3cc(F)cc(C#N)c3)c2CC1(F)F (centres unmarked) [Compound 13, 3-[7-(difluoromethylsulfonyl)-2,2-difluoro-1-hydroxy-1-methyl-indan-4-yl]oxy-5-fluoro-benzonitrile] | 6600
11 | CS(=O)(=O)c1ccc(Oc2cncc(Cl)c2)c2c1[C@H](O)C(F)(F)[C@@H]2F [Compound 331, (1S,3R)-4-((5-chloropyridin-3-yl)oxy)-2,2,3-trifluoro-7-(methylsulfonyl)-2,3-dihydro-1H-inden-1-ol] | 7
12 | O=S(=O)(c1ccc(Oc2cc(F)cc(Cl)c2)c(Cl)c1CNC1CCCOC1)C(F)F (centres unmarked) [Compound 49, N-(2-Chloro-3-(3-chloro-5-fluorophenoxy)-6-((difluoromethyl)sulfonyl)benzyl)tetrahydro-2H-pyran-3-amine] | 13000
13 | N#Cc1c(S(=O)(=O)C(F)F)ccc(Oc2cc(F)cc(Cl)c2)c1Br [Compound 76, 2-bromo-3-(3-chloro-5-fluorophenoxy)-6-((difluoromethyl)sulfonyl)benzonitrile] | 880
14 | O=S(=O)(c1ccc(Oc2cc(F)cc(F)c2)c2c1[C@H](O)CC2)C(F)(F)F [Example 55, (R)-4-(3,5-Difluorophenoxy)-7-((trifluoromethyl)sulfonyl)-2,3-dihydro-1H-inden-1-ol] | < 5
15 | Cc1c(Oc2cc(F)cc(C#N)c2)ccc(S(=O)(=O)C(F)(F)F)c1C#CCO [Compound 142, 3-Fluoro-5-[3-(3-hydroxyprop-1-ynyl)-2-methyl-4-(trifluoromethylsulfonyl)phenoxy]benzonitrile] | 13000
16 | O=S(=O)(c1ccc(Oc2cc(F)cc(Cl)c2)c(Br)c1Cl)C(F)(F)F [Compound 179, 2-Bromo-3-chloro-1-(3-chloro-5-fluorophenoxy)-4-((trifluoromethyl)sulfonyl)benzene] | 23
17 | CS(=O)(=NC#N)c1ccc(Oc2cc(F)cc(C#N)c2)c2c1[C@H](O)C(F)(F)C2 (some centres unmarked) [Example 240] | 26
18 | NC1CCc2c(Oc3cc(F)cc(F)c3)ccc(S(=O)(=O)C(F)F)c21 (centres unmarked) [Compound 19, 7-((difluoromethyl)sulfonyl)-4-(3,5-difluorophenoxy)-2,3-dihydro-1H-inden-1-amine] | 38000
19 | O=S(=O)(c1ccc(Oc2cccc3[nH]ncc23)c2c1C(O)C(F)(F)C2)C(F)(F)F (centres unmarked) [Compound 243] | 250
20 | N#Cc1cncc(Oc2ccc(S(N)(=O)=O)c3c2[C@@H](F)C(F)(F)[C@H]3O)c1 [Compound 340, (1R,3S)-7-[(5-cyano-3-pyridyl)oxy]-1,2,2-trifluoro-3-hydroxy-indane-4-sulfonamide] | 24
21 | O[C@@H]1CCc2c(Oc3cc(F)cc(F)c3)ccc(C(F)(F)F)c21 [Example 58, (R)-4-(3,5-Difluorophenoxy)-7-(trifluoromethyl)-2,3-dihydro-1H-inden-1-ol] | < 5

Row | Molecule | IC50 [nM]
22 | O=S(=O)(c1ccc(Oc2cc(F)cc3[nH]ncc23)c2c1C(O)C(F)(F)C2)C(F)(F)F (centres unmarked) [Compound 262, 2,2-Difluoro-4-((6-fluoro-1H-indazol-4-yl)oxy)-7-((trifluoromethyl)sulfonyl)-2,3-dihydro-1H-inden-1-ol] | 4900
23 | Cc1c(Oc2cc(F)cc(C#N)c2)ccc(S(=O)(=O)C(F)(F)F)c1C=O [Compound 145, 3-Fluoro-5-[3-formyl-2-methyl-4-(trifluoromethylsulfonyl)phenoxy]benzonitrile] | 74
24 | CS(=O)(=O)c1ccc(Oc2cc(F)cc(C#N)c2)c2c1[C@H](O)C(F)(F)[C@@H]2O [Compound 312, 3-[(1S,3R)-2,2-difluoro-1,3-dihydroxy-7-methylsulfonyl-indan-4-yl]oxy-5-fluoro-benzonitrile] | 150
25 | O=S(=O)(c1ccc(Oc2cc(Cl)ccc2F)c(Br)c1)C(F)(F)F [Compound 170, 2-Bromo-1-(5-chloro-2-fluorophenoxy)-4-((trifluoromethyl)sulfonyl)benzene] | 1800
26 | Cc1cc(S(=O)(=O)C(F)F)ccc1Oc1cc(F)cc(Cl)c1 [Compound 135, 1-(3-Chloro-5-fluoro-phenoxy)-4-(difluoromethylsulfonyl)-2-methyl-benzene] | 370
27 | N#CCS(=O)(=O)c1ccc(Oc2cc(F)cc(F)c2)c2c1C(O)CC2 (centres unmarked) [Compound 14, 2-[7-(3,5-difluorophenoxy)-3-hydroxy-indan-4-yl]sulfonylacetonitrile] | 5200
28 | O=S(=O)(CF)c1ccc(Oc2cncc(Cl)c2)c2c1[C@H](O)C(F)(F)C2 [Example 187, (S)-4-((5-Chloropyridin-3-yl)oxy)-2,2-difluoro-7-((fluoromethyl)sulfonyl)-2,3-dihydro-1H-inden-1-ol] | 79
29 | N#Cc1cc(F)cc(Oc2ccc(S(=O)(=O)C(F)F)c3c2CC(F)(F)[C@H]3N)c1 [Compound 207, (S)-3-((1-Amino-7-((difluoromethyl)sulfonyl)-2,2-difluoro-2,3-dihydro-1H-inden-4-yl)oxy)-5-fluorobenzonitrile] | 500
30 | N#CN=S(=O)(c1ccc(Oc2cc(F)cc(C#N)c2)c2c1[C@H](O)[C@H](F)C2)C(F)F (stereo partly drawn) [Compound 299, N-(((2R,3S)-7-(3-cyano-5-fluorophenoxy)-2-fluoro-3-hydroxy-2,3-dihydro-1H-inden-4-yl)(difluoromethyl)(oxo)-λ^6-sulfanylidene)cyanamide] | 16100
31 | CS(=O)(=O)c1ccc(Oc2cc(F)cc(Cl)c2)c(Br)c1 [Compound 138, 2-Bromo-1-(3-chloro-5-fluorophenoxy)-4-(methylsulfonyl)benzene] | 4000
32 | N#Cc1cc(F)cc(Oc2ccc(S(=O)(=O)C(F)F)c3c2CCC3F)c1 (centres unmarked) [Compound 202, 3-((7-((Difluoromethyl)sulfonyl)-1-fluoro-2,3-dihydro-1H-inden-4-yl)oxy)-5-fluorobenzonitrile] | 680
33 | CS(=O)(=O)c1ccc(Oc2cncc(Br)c2)c2c1[C@H](O)C(F)(F)C2 [Compound 324, (S)-4-((5-Bromopyridin-3-yl)oxy)-2,2-difluoro-7-(methylsulfonyl)-2,3-dihydro-1H-inden-1-ol] | 54
34 | CS(=O)(=O)c1ccc(Oc2cc(F)cc(C#N)c2)c2c1[C@H](O)C(F)(F)[C@H]2F [Compound 293, 3-fluoro-5-[(1S,3S)-2,2,3-trifluoro-1-hydroxy-7-methylsulfonyl-indan-4-yl]oxy-benzonitrile] | 720
35 | N#Cc1ccc(Oc2cc(F)cc(F)c2)c2c1[C@H](O)CC2 [Compound 66, (R)-7-(3,5-Difluorophenoxy)-3-hydroxy-2,3-dihydro-1H-indene-4-carbonitrile] | 5000
36 | CS(=O)(=NC#N)c1ccc(Oc2cc(F)cc(C#N)c2)c2c1[C@H](O)[C@H](F)C2 (stereo partly drawn) [Example 302, N-(((2R,3S)-7-(3-cyano-5-fluorophenoxy)-2-fluoro-3-hydroxy-2,3-dihydro-1H-inden-4-yl)(methyl)(oxo)-λ^6-sulfanylidene)cyanamide] | 63
37 | O=S(=O)(c1ccc(Oc2cc(F)cc(Cl)c2)c(Br)c1CO)C(F)(F)F [Compound 102, (2-Bromo-3-(3-chloro-5-fluorophenoxy)-6-((trifluoromethyl)sulfonyl)phenyl)methanol] | 120
38 | N#Cc1cncc(Oc2ccc(S(N)(=O)=O)c3c2CC(F)(F)[C@H]3O)c1 [Compound 253, (S)-7-((5-Cyanopyridin-3-yl)oxy)-2,2-difluoro-3-hydroxy-2,3-dihydro-1H-indene-4-sulfonamide] | 18000
39 | Cc1ccc(Cl)cc1Oc1ccc(S(=O)(=O)C(F)(F)F)cc1Br [Compound 174, 2-Bromo-1-(5-chloro-2-methylphenoxy)-4-((trifluoromethyl)sulfonyl)benzene] | 1200
40 | O=Cc1c(S(=O)(=O)C(F)(F)F)ccc(Oc2cc(F)cc(Cl)c2)c1Cl [Compound 112, 2-Chloro-3-(3-chloro-5-fluorophenoxy)-6-((trifluoromethyl)sulfonyl)benzaldehyde] | 40
41 | CS(=O)(=O)c1ccc(Oc2cc(F)cc(C#N)c2)c(C#N)c1Cl [Compound 152, 2-chloro-6-(3-cyano-5-fluorophenoxy)-3-(methylsulfonyl)benzonitrile] | 320
